From US20080161232A1, “C5a Receptor Antagonist” (JERINI AG, priority 2005, published 2008) come the findings set out here.

Starred links: 1 amine or outer side, 2 acyl side, 3 side chain; linkers in the order of their positions; H or OH if unused. Positions of bridges follow the written chain, without caps; N, C: chain ends. Non-standard residues stand in square brackets, D forms with d. Residues, ends and D or L forms follow the SMILES beside them. *: point of attachment. X2 = O=C([C@H](CCCN(C1=NCCN1)C1=NCCN1)N[*:1])[*:2]; Orn(2-imidazolinyl) = N[C@@H](CCCNC1=NCCN1)C(=O)O; Phe(3,4-Cl2) = N[C@@H](Cc1ccc(Cl)c(Cl)c1)C(=O)O; Dihydroorotyl(S) = O=C1C[C@@H](C(=O)*)NC(=O)N1; dβ3hPhg = O=C(C[C@H](N[*:1])c1ccccc1)[*:2]; Phe(3-Cl) = N[C@@H](Cc1cccc(Cl)c1)C(=O)O; Phe(4-F) = N[C@@H](Cc1ccc(F)cc1)C(=O)O; 2Nal = N[C@@H](Cc1ccc2ccccc2c1)C(=O)O; X11 = N=C(N)N[C@@H](Cc1ccccc1)C(=O)*; Acetyl(4-pyridyl) = O=C(Cc1ccncc1)*; Bta = N[C@@H](Cc1csc2ccccc12)C(=O)O; d(hCha) = N[C@H](CCC1CCCCC1)C(=O)O; Hyp = O=C(O)[C@@H]1C[C@@H](O)CN1; d(hLeu) = CC(C)CC[C@@H](N)C(=O)O; Cit = NC(=O)NCCC[C@H](N)C(=O)O; dCha = N[C@H](CC1CCCCC1)C(=O)O; hLeu = CC(C)CC[C@H](N)C(=O)O; Nicotinoyl = O=C(c1cccnc1)*; Nle = CCCC[C@H](N)C(=O)O; Orn = NCCC[C@H](N)C(=O)O; Aze = O=C(O)[C@@H]1CCN1; Dab = NCC[C@H](N)C(=O)O; NPrGly = CCCNCC(=O)O

The target in the first assay is T1, human C5aR(CD88) (Homo sapiens, UniProt P21730).
T1 construct: expressed in transfected cells; host or cells: rat basophilic leukemia cells (RBL)
T1 sequence (P21730 1-350): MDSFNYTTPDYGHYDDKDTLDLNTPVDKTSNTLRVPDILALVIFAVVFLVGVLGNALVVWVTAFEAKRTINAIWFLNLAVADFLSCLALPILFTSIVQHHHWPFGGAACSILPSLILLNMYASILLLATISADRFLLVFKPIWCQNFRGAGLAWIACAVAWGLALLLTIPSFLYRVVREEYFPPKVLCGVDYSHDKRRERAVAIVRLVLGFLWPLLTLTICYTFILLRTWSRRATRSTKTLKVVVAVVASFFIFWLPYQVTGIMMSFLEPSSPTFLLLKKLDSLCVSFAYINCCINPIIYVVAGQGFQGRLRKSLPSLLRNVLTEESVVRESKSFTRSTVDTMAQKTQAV
The experiment in a line: Determination of the IC50 value in an enzyme release assay (functional assay, antagonistic activity). Format: cell-based. As to conditions: antagonistic activity; IC50 group in enzyme release assay, RBL cells expressing human C5aR(CD88); read-out: activity (group).
As to `NCCC[C@H](NC(=O)[C@H](Cc1ccccc1)NC(=O)CN)C(=O)N1CCC[C@H]1C(=O)N[C@H](CC1CCCCC1)C(=O)N[C@@H](Cc1csc2ccccc12)C(=O)N[C@@H](Cc1ccccc1)C(N)=O` [Compound 345, H-Gly-Phe-Orn-Pro-cha-Bta-Phe-NH2] (H-GF[Orn]P[dCha][Bta]F-NH2), the IC50 was 50 to 200 nM.
`CC(C)CC[C@H]1NC(=O)[C@@H]2C[C@@H](O)CN2C(=O)[C@@H](NC(=O)[C@@H](N)Cc2ccccc2)CCCNC(=O)[C@H](Cc2ccccc2)NC(=O)[C@H](Cc2ccc(F)cc2)NC1=O` [Compound 366, H-Phe-[Orn-Hyp-hle-Pff-Phe]] (H-F[Orn][Hyp][d(hLeu)][Phe(4-F)]F; lactam 2-C): the IC50 lay within 50 to 200 nM.
In the case of `N[C@@H](Cc1ccccc1)C(=O)N[C@H]1CCCNC(=O)[C@H](Cc2ccccc2)NC(=O)[C@H](Cc2ccc(F)cc2)NC(=O)[C@@H](CC2CCCCC2)NC(=O)[C@@H]2CCCN2C1=O` [Compound 375, H-Phe-[Orn-Pro-cha-Pff-Phe]] (H-F[Orn]P[dCha][Phe(4-F)]F; lactam 2-C), the IC50 was 50 to 200 nM.
As to `CC(=O)N[C@@H](Cc1ccccc1)C(=O)N[C@@H](CCCN)C(=O)N1CCC[C@H]1C(=O)N[C@H](CCC(C)C)C(=O)N[C@@H](Cc1ccc(F)cc1)C(=O)N[C@@H](Cc1ccc2ccccc2c1)C(N)=O` [Compound 297, Ac-Phe-Orn-Pro-hle-Pff-2Ni—NH2] (Ac-F[Orn]P[d(hLeu)][Phe(4-F)][2Nal]-NH2), the IC50 lay within 50 to 200 nM.
Still for that read-out and setting: then `CC(=O)N[C@@H](Cc1ccccc1)C(=O)N[C@@H](CCCN(C1=NCCN1)C1=NCCN1)C(=O)N1CC[C@H]1C(=O)N[C@H](CC1CCCCC1)C(=O)N[C@@H](Cc1csc2ccccc12)C(=O)N[C@@H](Cc1ccccc1)C(N)=O` [Compound 223, Ac-Phe-Fcp-Aze-cha-Bta-Phe-NH2] (Ac-F[X2][Aze][dCha][Bta]F-NH2), with 20 to 50 nM.
With `CC[C@@H](C)[C@@H](NC(=O)[C@@H]1CCCN1C(=O)[C@H](CCCN)NC(=O)[C@H](Cc1ccccc1)NC(C)=O)C(=O)N[C@@H](Cc1c[nH]c2ccccc12)C(=O)N[C@@H](Cc1ccccc1)C(N)=O` [Compound 307, Ac-Phe-Orn-Pro-ile-Trp-Phe-NH2] (Ac-F[Orn]P[dI]WF-NH2), the IC50 lay within 5 to 10 nM.
On the same count and under the same terms, under `CCCC[C@@H]1NC(=O)[C@H](Cc2c[nH]c3ccccc23)NC(=O)[C@@H](CCC(C)C)NC(=O)[C@@H]2C[C@@H](O)CN2C(=O)[C@@H](NC(=O)C[C@H](N)c2ccccc2)CCCNC1=O` [Compound 344, H-Eby-[Orn-Hyp-hle-Trp-Nle]] (dβ3hPhg-[Orn][Hyp][d(hLeu)]W[Nle]; lactam 1-C) stands 50 to 200 nM; under `CC(=O)N[C@@H](Cc1ccccc1)C(=O)N[C@@H](CCCN)C(=O)N1CCC[C@H]1C(=O)N[C@H](CCC(C)C)C(=O)N[C@@H](Cc1ccc(Cl)c(Cl)c1)C(=O)N[C@@H](Cc1ccccc1)C(N)=O` [Compound 284, Ac-Phe-Orn-Pro-hle-Eaa-Phe-NH2] (Ac-F[Orn]P[d(hLeu)][Phe(3,4-Cl2)]F-NH2), 50 to 200 nM; under `CC(=O)N[C@@H](Cc1ccccc1)C(=O)N[C@@H](CCCN)C(=O)N1CC[C@H]1C(=O)N[C@H](CCC(C)C)C(=O)N[C@@H](Cc1csc2ccccc12)C(=O)N[C@@H](Cc1ccccc1)C(N)=O` [Compound 234, Ac-Phe-Orn-Aze-hle-Bta-Phe-NH2] (Ac-F[Orn][Aze][d(hLeu)][Bta]F-NH2), 20 to 50 nM.
On the same count and under the same terms, under `CC(=O)N[C@@H](Cc1ccccc1)C(=O)N[C@@H](CCCN)C(=O)N1CCC[C@H]1C(=O)N[C@H](CCC(C)C)C(=O)N[C@@H](Cc1csc2ccccc12)C(=O)N[C@@H](Cc1ccc(Cl)c(Cl)c1)C(N)=O` [Compound 276, Ac-Phe-Orn-Pro-hle-Bta-Eaa-NH2] (Ac-F[Orn]P[d(hLeu)][Bta][Phe(3,4-Cl2)]-NH2) stands 50 to 200 nM; under `CCCC[C@@H]1NC(=O)[C@H](Cc2ccc(F)cc2)NC(=O)[C@@H](CCC(C)C)NC(=O)[C@@H]2CCCN2C(=O)[C@@H](NC(=O)[C@@H](N)Cc2ccccc2)CCCNC1=O` [Compound 379, H-Phe-[Orn-Pro-hle-Pff-Nle]] (H-F[Orn]P[d(hLeu)][Phe(4-F)][Nle]; lactam 2-C), 50 to 200 nM; under `CC(=O)N[C@@H](Cc1ccccc1)C(=O)N[C@@H](CCCN)C(=O)N1CCC[C@H]1C(=O)N[C@H](CCC1CCCCC1)C(=O)N[C@@H](Cc1c[nH]c2ccccc12)C(=O)N[C@@H](Cc1ccccc1)C(N)=O` [Compound 110, Ac-Phe-Orn-Pro-hch-Trp-Phe-NH2] (Ac-F[Orn]P[d(hCha)]WF-NH2), 20 to 50 nM.
The same measure, in the same setting: under `CCCC[C@@H]1NC(=O)[C@H](Cc2c[nH]c3ccccc23)NC(=O)[C@@H](CC2CCCCC2)NC(=O)[C@@H]2CCCN2C(=O)[C@@H](NC(=O)[C@H](Cc2ccccc2)NC(=O)c2cccnc2)CCCNC1=O` [Compound 327, Fbn-Phe-[Orn-Pro-cha-Trp-Nle]] (Nicotinoyl-F[Orn]P[dCha]W[Nle]; lactam 2-C) stands 50 to 200 nM.
Consider `CC(C)CC[C@@H](NC(=O)[C@@H]1CCCN1C(=O)[C@H](CCCN)NC(=O)[C@H](Cc1ccccc1)NC(=O)[C@@H]1CC(=O)NC(=O)N1)C(=O)N[C@@H](Cc1cccc(Cl)c1)C(=O)N[C@@H](Cc1ccccc1)C(N)=O` [Compound 351, Hoo-Phe-Orn-Pro-hle-Mcf-Phe-NH2] ({Dihydroorotyl(S)}-F[Orn]P[d(hLeu)][Phe(3-Cl)]F-NH2), for which the IC50 lay in the range of 20 to 50 nM.
Still for that read-out and setting: under `CCCC[C@@H]1NC(=O)[C@H](Cc2c[nH]c3ccccc23)NC(=O)[C@@H](CC2CCCCC2)NC(=O)[C@@H]2CCCN2C(=O)[C@@H](NC(=O)[C@H](Cc2ccccc2)NC(=O)Cc2ccncc2)CCCNC1=O` [Compound 325, Fbi-Phe-[Orn-Pro-cha-Trp-Nle]] ({Acetyl(4-pyridyl)}-F[Orn]P[dCha]W[Nle]; lactam 2-C) stands 50 to 200 nM; under `CCCN(CC(=O)N[C@H](CC1CCCCC1)C(=O)N[C@@H](Cc1csc2ccccc12)C(=O)N[C@@H](Cc1ccccc1)C(N)=O)C(=O)[C@H](CCCN)NC(=O)[C@H](Cc1ccccc1)NC(C)=O` [Compound 237, Ac-Phe-Orn-G24-cha-Bta-Phe-NH2] (Ac-F[Orn][NPrGly][dCha][Bta]F-NH2), 50 to 200 nM; under `CC(=O)N[C@@H](Cc1ccccc1)C(=O)N[C@H]1CCCNC(=O)[C@H](Cc2ccccc2)NC(=O)[C@H](Cc2c[nH]c3ccccc23)NC(=O)[C@@H](CC2CCCCC2)NC(=O)[C@@H]2C[C@@H](OC(C)=O)CN2C1=O` [Compound 176, Ac-Phe-[Orn-HyA-cha-Trp-Phe]] (Ac-F[Orn][Hyp](Ac)[dCha]WF; lactam 2-C), 50 to 200 nM.
With `N=C(N)N[C@@H](Cc1ccccc1)C(=O)N[C@@H](CCCN)C(=O)N1CCC[C@H]1C(=O)N[C@H](CC1CCCCC1)C(=O)N[C@@H](Cc1csc2ccccc12)C(=O)N[C@@H](Cc1ccccc1)C(N)=O` [Compound 339, Fhu-Phe-Orn-Pro-cha-Bta-Phe-NH2] (X11-[Orn]P[dCha][Bta]F-NH2), the IC50 was 50 to 200 nM.
Same read-out and setting: under `CC(=O)N[C@@H](Cc1ccccc1)C(=O)N[C@H]1CCCNC(=O)[C@H](CCC/N=C(/N)N[N+](=O)[O-])NC(=O)[C@H](Cc2c[nH]c3ccccc23)NC(=O)[C@@H](CC2CCCCC2)NC(=O)[C@@H]2CCCN2C1=O` [compound 11] stands 200 to 2000 nM.
The same measure, in the same setting: under `CC(C)CC[C@@H]1NC(=O)[C@H](Cc2c[nH]c3ccccc23)NC(=O)[C@@H](CCC(C)C)NC(=O)[C@@H]2C[C@@H](O)CN2C(=O)[C@@H](NC(=O)[C@@H](N)Cc2ccccc2)CCCNC1=O` [Compound 367, H-Phe-[Orn-Hyp-hle-Trp-Hle]] (H-F[Orn][Hyp][d(hLeu)]W[hLeu]; lactam 2-C) stands 50 to 200 nM; under `CC(=O)N[C@@H](Cc1ccccc1)C(=O)N[C@@H](CCCNC(N)=O)C(=O)N[C@@H](CO)C(=O)N[C@H](CCC(C)C)C(=O)N[C@@H](Cc1csc2ccccc12)C(=O)N[C@@H](Cc1ccccc1)C(N)=O` [Compound 212, Ac-Phe-Cit-Ser-hle-Bta-Phe-NH2] (Ac-F[Cit]S[d(hLeu)][Bta]F-NH2), 50 to 200 nM.
As to `CNC(=O)[C@H](Cc1ccccc1)NC(=O)[C@H](Cc1csc2ccccc12)NC(=O)[C@@H](CC1CCCCC1)NC(=O)[C@@H]1CCN1C(=O)[C@H](CCCN)NC(=O)[C@H](Cc1ccccc1)NC(C)=O` [Compound 95, Ac-Phe-Orn-Aze-cha-Bta-Phe-NH—Me] (Ac-F[Orn][Aze][dCha][Bta]F-NHMe), the IC50 lay within 200 to 2000 nM.
For `CC(=O)N[C@@H](Cc1ccccc1)C(=O)N[C@@H](CCCNC1=NCCN1)C(=O)N1CC[C@H]1C(=O)N[C@H](CC1CCCCC1)C(=O)N[C@@H](Cc1csc2ccccc12)C(=O)N[C@@H](Cc1ccccc1)C(N)=O` [Compound 224, Ac-Phe-Ffa-Aze-cha-Bta-Phe-NH2] (Ac-F[Orn(2-imidazolinyl)][Aze][dCha][Bta]F-NH2), the IC50 lay within 20 to 50 nM.
Same read-out and setting: under `CC(=O)N[C@@H](Cc1ccccc1)C(=O)N[C@H]1CCCNC(=O)[C@H](CCCCNC(=N)N)NC(=O)[C@H](Cc2c[nH]c3ccccc23)NC(=O)[C@@H](CC2CCCCC2)NC(=O)[C@@H]2CCCN2C1=O` [compound 8] stands 200 to 2000 nM; under `CC(=O)N[C@@H](Cc1ccccc1)C(=O)N[C@@H](CCN)C(=O)N1CC[C@H]1C(=O)N[C@H](CC1CCCCC1)C(=O)N[C@@H](Cc1csc2ccccc12)C(=O)N[C@@H](Cc1ccccc1)C(N)=O` [Compound 213, Ac-Phe-Dab-Aze-cha-Bta-Phe-NH2] (Ac-F[Dab][Aze][dCha][Bta]F-NH2), 20 to 50 nM.

Still in this assay, the particulars now being: functional assay of example 11; noteworthy = IC50 less than 200 nM.
On to `CC(=O)N[C@@H](Cc1ccccc1)C(=O)N[C@H]1CCCNC(=O)[C@H](Cc2ccccc2)NC(=O)[C@H](Cc2c[nH]c3ccccc23)NC(=O)[C@@H](CC2CCCCC2)NC(=O)[C@H](CO)NC1=O` [Ac-Phe-[Orn-Ser-cha-Trp-Phe]] (Ac-F[Orn]S[dCha]WF; lactam 2-C), for which the “inhibitory activity (in words)” value was “noteworthy inhibitory activity”.
